The text below walks through data of ChEMBL document CHEMBL1125095, “Conformational analysis and structure-activity relationships of selective dopamine D-1 receptor agonists and antagonists of the benzazepine series” (J Med Chem, 1990).

The target in experiment [1] is T1, D(1A) dopamine receptor (Homo sapiens, UniProt P21728). Description: Binding affinity to displace [3H]- SCH 23390 against Dopamine receptor D1.
Experiment [2] has as its target T1, D(1A) dopamine receptor. As to the kind of experiment: Binding affinity to displace [3H]-SCH- 23390 against Dopamine receptor D1.
For experiment [3], the target named is T2, Adenylate cyclase type 5 (Homo sapiens, UniProt O95622). Description: Effective dose required to stimulate Adenylate cyclase.
Target sequence in this assay (O95622 whole entry, looked up): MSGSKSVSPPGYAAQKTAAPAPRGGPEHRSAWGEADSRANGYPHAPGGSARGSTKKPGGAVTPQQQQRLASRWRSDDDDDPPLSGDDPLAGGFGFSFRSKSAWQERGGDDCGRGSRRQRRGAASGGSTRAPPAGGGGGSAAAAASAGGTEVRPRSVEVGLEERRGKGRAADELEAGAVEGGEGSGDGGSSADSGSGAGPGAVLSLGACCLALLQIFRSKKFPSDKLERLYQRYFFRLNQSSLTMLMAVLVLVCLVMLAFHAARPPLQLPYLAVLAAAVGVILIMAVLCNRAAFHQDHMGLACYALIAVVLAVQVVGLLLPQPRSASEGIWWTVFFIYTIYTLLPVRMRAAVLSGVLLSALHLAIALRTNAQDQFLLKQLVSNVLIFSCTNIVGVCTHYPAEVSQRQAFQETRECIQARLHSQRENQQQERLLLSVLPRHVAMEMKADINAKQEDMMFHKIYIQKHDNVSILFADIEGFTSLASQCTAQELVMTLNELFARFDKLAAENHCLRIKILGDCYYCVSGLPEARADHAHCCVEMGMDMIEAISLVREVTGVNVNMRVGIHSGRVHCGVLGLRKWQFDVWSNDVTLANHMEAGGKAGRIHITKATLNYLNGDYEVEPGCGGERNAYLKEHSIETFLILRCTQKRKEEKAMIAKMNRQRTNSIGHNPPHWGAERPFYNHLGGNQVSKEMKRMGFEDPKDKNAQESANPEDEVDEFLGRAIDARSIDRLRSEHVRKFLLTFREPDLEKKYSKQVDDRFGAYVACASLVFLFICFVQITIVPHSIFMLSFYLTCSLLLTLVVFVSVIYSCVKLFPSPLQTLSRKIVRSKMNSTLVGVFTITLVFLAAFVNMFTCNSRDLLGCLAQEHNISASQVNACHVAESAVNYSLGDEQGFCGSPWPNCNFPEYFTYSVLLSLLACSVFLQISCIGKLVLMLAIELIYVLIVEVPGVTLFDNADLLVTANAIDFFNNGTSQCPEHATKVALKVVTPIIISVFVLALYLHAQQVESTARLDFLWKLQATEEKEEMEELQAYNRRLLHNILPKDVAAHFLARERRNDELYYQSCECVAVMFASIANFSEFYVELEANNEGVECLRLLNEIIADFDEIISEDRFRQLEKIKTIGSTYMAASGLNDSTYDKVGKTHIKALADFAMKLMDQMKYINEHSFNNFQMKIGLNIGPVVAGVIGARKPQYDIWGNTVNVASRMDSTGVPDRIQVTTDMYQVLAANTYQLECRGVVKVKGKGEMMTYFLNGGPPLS
The target of experiment [4] is D(1A) dopamine receptor (Rattus norvegicus, UniProt P18901). Description: Binding affinity against Dopamine receptor D1 in rat radioligand.
The target of experiment [5] is T2, Adenylate cyclase type 5. As to the kind of experiment: Effective concentration required to stimulate Adenylate cyclase.
Target sequence in this assay (O95622 whole entry, looked up): as above
Experiment [6] concerns the target T2, Adenylate cyclase type 5. Description: Effective concentration required to stimulate Adenylate cyclase; Inactive.
Target sequence in this assay (O95622 whole entry): as the sequence (O95622 whole entry, looked up) above

Each structure is given as a SMILES string.

T1 sequence (P21728 whole entry): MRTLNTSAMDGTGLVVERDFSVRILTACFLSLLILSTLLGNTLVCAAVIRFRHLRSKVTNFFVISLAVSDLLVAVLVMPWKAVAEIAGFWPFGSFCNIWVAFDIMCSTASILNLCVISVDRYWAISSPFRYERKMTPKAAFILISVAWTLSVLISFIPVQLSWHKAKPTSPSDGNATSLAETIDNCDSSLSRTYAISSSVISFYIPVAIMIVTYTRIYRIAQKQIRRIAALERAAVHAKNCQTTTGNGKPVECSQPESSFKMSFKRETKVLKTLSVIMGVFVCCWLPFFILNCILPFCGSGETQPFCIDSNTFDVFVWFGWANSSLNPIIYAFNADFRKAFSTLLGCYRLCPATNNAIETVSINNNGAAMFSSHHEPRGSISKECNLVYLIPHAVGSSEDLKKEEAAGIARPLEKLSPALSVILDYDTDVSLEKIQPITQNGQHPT
Chain of D(1A) dopamine receptor (Rattus norvegicus, UniProt P18901) (P18901 whole entry): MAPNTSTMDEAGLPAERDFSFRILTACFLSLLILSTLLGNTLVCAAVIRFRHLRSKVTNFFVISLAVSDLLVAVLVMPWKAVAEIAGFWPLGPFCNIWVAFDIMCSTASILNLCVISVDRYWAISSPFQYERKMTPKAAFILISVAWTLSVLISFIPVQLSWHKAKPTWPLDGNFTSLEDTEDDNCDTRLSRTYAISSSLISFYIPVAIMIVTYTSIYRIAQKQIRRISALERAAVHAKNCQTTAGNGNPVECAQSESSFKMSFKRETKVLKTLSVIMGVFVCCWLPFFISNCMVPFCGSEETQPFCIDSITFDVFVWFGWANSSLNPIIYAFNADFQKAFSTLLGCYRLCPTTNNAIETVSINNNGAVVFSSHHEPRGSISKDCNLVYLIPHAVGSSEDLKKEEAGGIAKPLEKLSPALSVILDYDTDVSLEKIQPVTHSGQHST

Turning to `CN1CCc2cc(Cl)c(O)cc2[C@H]2c3ccccc3C[C@@H]21`, the Ki (usually a dissociation constant, usually derived from enzyme kinetics or from competition with a known ligand) at D(1A) dopamine receptor [1] was 7 nM. As to `Cc1ccccc1[C@H]1CN(C)CCc2cc(Cl)c(O)cc21`, the Ki on D(1A) dopamine receptor [1] came to 0.8 nM. `CN1CCc2cc(Cl)c(O)cc2[C@@H](c2cccc3ccoc23)C1`: at D(1A) dopamine receptor [2], the inhibition constant Ki is 6 nM. Take `Oc1cc2c3c(c1O)CC[C@@H]3CNC[C@@H]2c1ccccc1`: on Adenylate cyclase type 5 [3], the ED50 was found to be 430 nM. The molecule also displayed a Ki on D(1A) dopamine receptor [4] of 24 nM.

`Cc1cccc([C@H]2CNCCc3cc(O)c(O)cc32)c1`: on Adenylate cyclase type 5 [5], the Response stood at 71%.

Consider `Cc1cccc([C@H]2CN(C)CCc3cc(Cl)c(O)cc32)c1`, for which the inhibitory constant (Ki) at D(1A) dopamine receptor [1] is 0.4 nM. With `Oc1cc2c(cc1O)[C@@H](c1ccccc1)CNCC2`, the ED50 at Adenylate cyclase type 5 [3] turned out to be 63 nM.

For the molecule `Cc1c(O)c(O)cc2c1[C@@H](c1ccccc1)CNCC2`, the EC50 result at Adenylate cyclase type 5 [6] is recorded as “Not Active”. In the case of `Cc1ccccc1[C@H]1CNCCc2cc(O)c(O)cc21`, the EC50 entry at Adenylate cyclase type 5 [6] was “Not Active”. With `Cc1ccc([C@H]2CN(C)CCc3cc(Cl)c(O)cc32)cc1`, affinity at D(1A) dopamine receptor [1] was put at a Ki of 1.6 nM. Regarding `Oc1cc2c3c(c1O)CC[C@H]3CNC[C@@H]2c1ccccc1`, the Control at Adenylate cyclase type 5 [3] worked out at 20%. Moreover, affinity on D(1A) dopamine receptor [4] was put at a Ki of 1220 nM.
